Legend:
bedstraw = test: Test B pre/postemergence bedstraw; format: in vivo, Galium aparine
Outline: (§1)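 Test chemicals in a non-phytotoxic solvent mixture with surfactant were sprayed preemergence onto planted seeds and postemergence onto plants 2 to 18 cm tall (1- to 4-leaf stage). After twelve to sixteen days in a greenhouse, injury was visually rated against untreated controls from 0 (no effect) to 10 (complete control).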

blackgrass = test: Test B pre/postemergence blackgrass; format: in vivo, Alopecurus myosuroides
Outline: as §1

surinam grass = test: Test B pre/postemergence surinam grass; format: in vivo, Brachiaria decumbens
Outline: as §1

cocklebur = test: Test B pre/postemergence cocklebur; format: in vivo, Xanthium strumarium
Outline: as §1

corn = test: Test B pre/postemergence corn; format: in vivo, Zea mays
Outline: as §1

crabgrass = test: Test B pre/postemergence crabgrass; format: in vivo, Digitaria sanguinalis
Outline: as §1

giant foxtail = test: Test B pre/postemergence giant foxtail; format: in vivo, Setaria faberii
Outline: as §1

morningglory = test: Test B pre/postemergence morningglory; format: in vivo, Ipomoea hederacea
Outline: as §1

pigweed = test: Test B pre/postemergence pigweed; format: in vivo, Amaranthus retroflexus
Outline: as §1

rape = test: Test B pre/postemergence rape; format: in vivo, Brassica napus
Outline: as §1

soybean = test: Test B pre/postemergence soybean; format: in vivo, Glycine max
Outline: as §1

sugar beet = test: Test B pre/postemergence sugar beet; format: in vivo, Beta vulgaris
Outline: as §1

velvetleaf = test: Test B pre/postemergence velvetleaf; format: in vivo, Abutilon theophrasti
Outline: as §1

wheat = test: Test B pre/postemergence wheat; format: in vivo, Triticum aestivum
Outline: as §1

wild oat = test: Test B pre/postemergence wild oat; format: in vivo, Avena fatua
Outline: as §1

purple nutsedge = test: Test B pre/postemergence purple nutsedge; format: in vivo, Cyperus rotundus
Outline: as §1

[1] = Postemergence, Rate 62 g/ha, scale of 0 to 10, 0 is no effect, 10 is complete control
[2] = Postemergence, Rate 125 g/ha, scale 0 to 10, 0 is no effect, 10 is complete control
[3] = Postemergence, Rate 500 g/ha, scale 0 to 10, 0 is no effect, 10 is complete control
[4] = Preemergence, Rate 62 g/ha, scale 0 to 10 (0 no effect, 10 complete control)
[5] = Preemergence, Rate 125 g/ha, scale 0 to 10, 0 is no effect, 10 is complete control
[6] = Preemergence, Rate 500 g/ha, scale of 0 to 10 where 0 is no effect and 10 is complete control
[7] = Rate 250 g/ha, Postemergence, scale of 0 to 10 where 0 is no effect and 10 is complete control

For Cc1noc(C)c1Cn1c(=O)on(C(=O)N(c2ccc(Cl)cc2)C(C)C)c1=O [Compound 540], the “Bedstraw plant response rating” value (bedstraw; [1]) was 0, the “Bedstraw plant response rating” value (bedstraw; [2]) was 3 and the “Plant response rating, Bedstraw” value (bedstraw; [3]) was 9. The “Bedstraw plant response rating” value (bedstraw; [4]) was 0, the “Bedstraw plant response rating” value (bedstraw; [5]) was 0 and the “Bedstraw plant response rating (0 to 10 scale)” value (bedstraw; Preemergence, Rate 250 g/ha) was 0. The “Bedstraw plant response rating” value (bedstraw; [6]) was 0, the “Plant response rating, Bedstraw” value (bedstraw; [7]) was 10 and the “Blackgrass plant response rating” value (blackgrass; [1]) was 0. The “Blackgrass plant response rating” value (blackgrass; [2]) was 0, the “Plant response rating, Blackgrass” value (blackgrass; [3]) was 7 and the “Blackgrass plant response rating” value (blackgrass; [4]) was 0. The “Blackgrass plant response rating” value (blackgrass; [5]) was 0, the “Blackgrass plant response rating (0 to 10 scale)” value (blackgrass; Preemergence, Rate 250 g/ha) was 0 and the “Blackgrass plant response rating” value (blackgrass; [6]) was 9. The “Plant response rating, Blackgrass” value (blackgrass; [7]) was 2, the “B. signalgrass plant response rating” value (surinam grass; [1]) was 0 and the “B. signalgrass plant response rating” value (surinam grass; [2]) was 0. For the same compound, the “Plant response rating, B. signalgrass” value (surinam grass; [3]) was 3, the “B. signalgrass plant response rating” value (surinam grass; [4]) was 0 and the “B. signalgrass plant response rating” value (surinam grass; [5]) was 0. The “B. signalgrass plant response rating (0 to 10 scale, 0 is no effect, 10 is complete control)” value (surinam grass; Preemergence, Rate 250 g/ha) was 0, the “B. signalgrass plant response rating” value (surinam grass; [6]) was 8 and the “Plant response rating, B. signalgrass” value (surinam grass; [7]) was 0. For the same compound, the “Cocklebur plant response rating” value (cocklebur; [1]) was 0, the “Cocklebur plant response rating” value (cocklebur; [2]) was 0 and the “Plant response rating, Cocklebur” value (cocklebur; [3]) was 0. The “Cocklebur plant response rating” value (cocklebur; [4]) was 0, the “Cocklebur plant response rating” value (cocklebur; [5]) was 0 and the “Cocklebur plant response rating (0 to 10 scale)” value (cocklebur; Preemergence, Rate 250 g/ha) was 9. The “Cocklebur plant response rating” value (cocklebur; [6]) was 10, the “Plant response rating, Cocklebur” value (cocklebur; [7]) was 0 and the “Corn plant response rating” value (corn; [1]) was 0. For the same compound, the “Corn plant response rating” value (corn; [2]) was 0, the “Plant response rating, Corn” value (corn; [3]) was 0 and the “Corn plant response rating” value (corn; [4]) was 0. For the same compound, the “Corn plant response rating” value (corn; [5]) was 0, the “Corn plant response rating (0 to 10 scale)” value (corn; Preemergence, Rate 250 g/ha) was 0 and the “Corn plant response rating” value (corn; [6]) was 2. For the same compound, the “Plant response rating, Corn” value (corn; [7]) was 0, the “Crabgrass plant response rating” value (crabgrass; [1]) was 5 and the “Crabgrass plant response rating” value (crabgrass; [2]) was 5. The “Plant response rating, Crabgrass” value (crabgrass; [3]) was 8, the “Crabgrass plant response rating” value (crabgrass; [4]) was 8 and the “Crabgrass plant response rating” value (crabgrass; [5]) was 9. For the same compound, the “Crabgrass plant response rating (0 to 10 scale)” value (crabgrass; Preemergence, Rate 250 g/ha) was 10, the “Crabgrass plant response rating” value (crabgrass; [6]) was 10 and the “Plant response rating, Crabgrass” value (crabgrass; [7]) was 5. The “Giant foxtail plant response rating” value (giant foxtail; [1]) was 0, the “Giant foxtail plant response rating” value (giant foxtail; [2]) was 0 and the “Plant response rating, Giant foxtail” value (giant foxtail; [3]) was 3. The “Giant foxtail plant response rating” value (giant foxtail; [4]) was 9, the “Giant foxtail plant response rating” value (giant foxtail; [5]) was 9 and the “Giant foxtail plant response rating (0 to 10 scale)” value (giant foxtail; Preemergence, Rate 250 g/ha) was 10. The “Giant foxtail plant response rating” value (giant foxtail; [6]) was 10, the “Plant response rating, Giant foxtail” value (giant foxtail; [7]) was 0 and the “Morningglory plant response rating” value (morningglory; [1]) was 2. For the same compound, the “Morningglory plant response rating” value (morningglory; [2]) was 4, the “Plant response rating, Morningglory” value (morningglory; [3]) was 6 and the “Morningglory plant response rating” value (morningglory; [4]) was 0. For the same compound, the “Morningglory plant response rating” value (morningglory; [5]) was 0, the “Morningglory plant response rating (0 to 10 scale)” value (morningglory; Preemergence, Rate 250 g/ha) was 0 and the “Morningglory plant response rating” value (morningglory; [6]) was 0. The “Plant response rating, Morningglory” value (morningglory; [7]) was 5, the “Redroot pigweed plant response rating” value (pigweed; [1]) was 0 and the “Redroot pigweed plant response rating” value (pigweed; [2]) was 0. The “Plant response rating, Redroot pigweed” value (pigweed; [3]) was 2, the “Redroot pigweed plant response rating” value (pigweed; [4]) was 0 and the “Redroot pigweed plant response rating” value (pigweed; [5]) was 0. The “Redroot pigweed plant response rating (0 to 10 scale)” value (pigweed; Preemergence, Rate 250 g/ha) was 3, the “Redroot pigweed plant response rating” value (pigweed; [6]) was 10 and the “Plant response rating, Redroot pigweed” value (pigweed; [7]) was 2. The “Rape plant response rating” value (rape; [1]) was 0, the “Rape plant response rating” value (rape; [2]) was 2 and the “Rape plant response rating” value (rape; [4]) was 0. For the same compound, the “Rape plant response rating” value (rape; [5]) was 0, the “Rape plant response rating (0 to 10 scale)” value (rape; Preemergence, Rate 250 g/ha) was 2 and the “Rape plant response rating” value (rape; [6]) was 7. The “Plant response rating, Rape” value (rape; [7]) was 7, the “Soybean plant response rating” value (soybean; [1]) was 1 and the “Soybean plant response rating” value (soybean; [2]) was 1. For the same compound, the “Plant response rating, Soybean” value (soybean; [3]) was 1, the “Soybean plant response rating” value (soybean; [4]) was 0 and the “Soybean plant response rating” value (soybean; [5]) was 0. For the same compound, the “Soybean plant response rating (0 to 10 scale)” value (soybean; Preemergence, Rate 250 g/ha) was 0, the “Soybean plant response rating” value (soybean; [6]) was 0 and the “Plant response rating, Soybean” value (soybean; [7]) was 1. For the same compound, the “Sugarbeets plant response rating” value (sugar beet; [1]) was 0, the “Sugarbeets plant response rating” value (sugar beet; [2]) was 2 and the “Plant response rating, Sugarbeets” value (sugar beet; [3]) was 6. The “Sugarbeets plant response rating” value (sugar beet; [4]) was 0, the “Sugarbeets plant response rating” value (sugar beet; [5]) was 0 and the “Sugarbeets plant response rating (0 to 10 scale)” value (sugar beet; Preemergence, Rate 250 g/ha) was 0. For the same compound, the “Sugarbeets plant response rating” value (sugar beet; [6]) was 4, the “Plant response rating, Sugarbeets” value (sugar beet; [7]) was 6 and the “Velvetleaf plant response rating” value (velvetleaf; [1]) was 0. The “Velvetleaf plant response rating” value (velvetleaf; [2]) was 0, the “Plant response rating, Velvetleaf” value (velvetleaf; [3]) was 1 and the “Velvetleaf plant response rating” value (velvetleaf; [4]) was 0. The “Velvetleaf plant response rating” value (velvetleaf; [5]) was 0, the “Velvetleaf plant response rating (0 to 10 scale)” value (velvetleaf; Preemergence, Rate 250 g/ha) was 0 and the “Velvetleaf plant response rating” value (velvetleaf; [6]) was 0. The “Plant response rating, Velvetleaf” value (velvetleaf; [7]) was 0, the “Wheat plant response rating” value (wheat; [1]) was 0 and the “Wheat plant response rating” value (wheat; [2]) was 0. For the same compound, the “Plant response rating, Wheat” value (wheat; [3]) was 0, the “Wheat plant response rating” value (wheat; [4]) was 0 and the “Wheat plant response rating” value (wheat; [5]) was 0. For the same compound, the “Wheat plant response rating (0 to 10 scale)” value (wheat; Preemergence, Rate 250 g/ha) was 0, the “Wheat plant response rating” value (wheat; [6]) was 0 and the “Plant response rating, Wheat” value (wheat; [7]) was 0. For the same compound, the “Wild oats plant response rating” value (wild oat; [1]) was 0, the “Wild oats plant response rating” value (wild oat; [2]) was 0 and the “Plant response rating, Wild oats” value (wild oat; [3]) was 2. The “Wild oats plant response rating” value (wild oat; [4]) was 0, the “Wild oats plant response rating” value (wild oat; [5]) was 2 and the “Wild oats plant response rating (0 to 10 scale)” value (wild oat; Preemergence, Rate 250 g/ha) was 2. The “Wild oats plant response rating” value (wild oat; [6]) was 8, the “Plant response rating, Wild oats” value (wild oat; [7]) was 0 and the “Nutsedge plant response rating” value (purple nutsedge; [1]) was 0. For the same compound, the “Nutsedge plant response rating” value (purple nutsedge; [2]) was 0, the “Plant response rating, Nutsedge” value (purple nutsedge; [3]) was 0 and the “Nutsedge plant response rating” value (purple nutsedge; [5]) was 0. For the same compound, the “Nutsedge plant response rating (0 to 10 scale)” value (purple nutsedge; Preemergence, Rate 250 g/ha) was 0, the “Nutsedge plant response rating” value (purple nutsedge; [6]) was 0 and the “Plant response rating, Nutsedge” value (purple nutsedge; [7]) was 0.
